In US9403756B2, “N-phenyl anthranilic acid derivatives and uses thereof” (Ramot at Tel-Aviv University Ltd., priority 2007, dated 2016):
Entries after “also recorded” stand apart in the source; their conditions may differ.

How the values were obtained:
Kv7.2/3 channels = molecular target: T1, Kv7.2/3 channels (Homo sapiens, UniProt O43525+O43526); assay: Kv7.2/3 channels coexpressed in CHO cells, whole-cell patch-clamp; assay type: cell-based
T1 construct: expressed in transfected cells; host or cells: CHO cells
Procedure: Chinese hamster ovary (CHO) cells were grown in Dulbecco's modified Eagle's medium (DMEM) supplemented with 2 mM glutamine, 10% fetal calf serum and antibiotics. Briefly, 40,000 cells seeded on poly-D-lysine-coated glass coverslips (13 mm diameter) in a 24-multiwell plate were transfected with pIRES-CD8 (0.5 μg) as a marker for transfection, and with Kv7.2 (0.5 μg) and Kv7.3 (0.5 μg) or TRPV1 […] or TRPV6 […].
For electrophysiology, transfected cells were visualized approximately 40 hours following transfection, using anti-CD8 antibody-coated beads. Transfection was performed using Fugene 6 (Roche, Indianapolis Ind., USA) according to the manufacturer's protocol.
Voltage-clamp recordings in CHO cells were performed, using the whole-cell configuration of the patch-clamp technique. Signals were amplified using an Axopatch 200B patch-clamp amplifier (Molecular Devices, Sunnyvale, Calif.), sampled at 2 kHz and filtered at 800 Hz via a 4-pole Bessel low pass filter. […] The patch pipettes were pulled from borosilicate glass (Warner Instrument Corp, USA) with a resistance of 2-5 MΩ. For K^+ current recordings in CHO cells, the intracellular pipette solution contained (in mM): 130 KCl, 1 MgCl2, 5 K2ATP, 5 EGTA, 10 HEPES, adjusted with KOH to pH 7.4 (290 mOsm). The extracellular solution contained (in mM): 140 NaCl, 4 KCl, 1.8 CaCl2, 1.2 MgCl2, 11 glucose, 5.5 HEPES, adjusted with NaOH to pH 7.4 (310 mOsm).
Data analysis was performed using the Clampfit program (pClamp 9.2, Molecular Devices), Microsoft Excel (Microsoft) and Prism 4.0 (GraphPad). Chord conductance (G) was calculated by using the following equation: G=I/(V−Vrev) where I corresponds to the current amplitude measured at the end of the pulse and Vrev, the calculated reversal potential. G was estimated at various test voltages V and then, normalized to a maximal conductance value, Gmax. Activation curves were fitted by one Boltzmann distribution: G/Gmax=1/{1+exp[(V50−V)/s]} where V50 is the voltage at which the current is half-activated and s is the slope factor. All data were expressed as mean±SEM. Statistically significant differences were assessed by Student's t-test. Analysis of sEPSCs and sIPSCs was done using the Clampfit program (pClamp 9.2, Molecular Devices) and included evaluation of the individual events as well as the average event amplitude and the integral of the event (total charge transfer).
In these studies, the impact of the compounds on M-channel activity was measured by the heterologous coexpression of Kv7.2 and Kv7.3 subunits in CHO cells.

DRG neurons [1] = assay: Current-clamp recordings in cultured DRG neurons; assay type: cell-based, rat
Procedure: For dorsal root ganglion (DRG) neuronal cultures, ganglia were dissected from 2-5 day-old Sprague-Dawley rats killed by decapitation. DRGs were placed in Hank's balanced saline solution (HBSS) and prepared by enzymatic dissociation. Briefly, after 30 minutes incubation in 5 mg/ml dispase, 2 mg/ml collagenase type 1A and 0.1 mg/ml DNase (Invitrogen/Gibco, Carlsbad, Calif.) in Ca^2+ and Mg^2+-free HBSS, the ganglia were mechanically triturated with a fire-polished glass Pasteur pipette. The ganglia were then centrifuged for 5 minutes at 80×g and resuspended in DMEM supplemented with 2 mM L-glutamine, 16.5 mM NaHCO3, 6 g/l glucose, 5 ml penicillin/streptomycin and 10% fetal calf serum.
For electrophysiological recording, dissociated neurons were plated on 13 mm glass coverslips, previously coated with poly-D-lysine (1 mg/ml) and laminin (10 μg/ml) and used at 1-2 days in culture.
For current-clamp recordings in primary cultured neurons, the patch pipettes were filled with (in mM): 135 KCl, 1 K2ATP, 1 MgATP, 2 EGTA, 1.1 CaCl2, 5 glucose, 10 HEPES, adjusted with KOH at pH 7.4 (315 mOsm). The external solution contained (in mM): 150 NaCl, 2.5 KCl, 2 CaCl2, 2 MgCl2, 15 glucose, 10 HEPES, adjusted with NaOH at pH 7.4 (325 mOsm). Recordings were sampled at 5 kHz and filtered at 2 KHz via a 4-pole Bessel low pass filter. A liquid junction potential of about −15.6 mV was measured between the intracellular and saline solutions and corrected on-line.
For evoking spike discharges, 75-200 pA square depolarizing current pulses were injected into neurons for 400 ms. For rheobase current measurements, 100-1100 pA square depolarizing current pulses were injected into neurons for 2 ms.

DRG neurons [2] = assay: Current-clamp recordings in cultured DRG neurons; assay type: cell-based, rat; settings: 1 μM NH17; about 10-20 pA for 400 ms; control 1±0; n=5
KCNQ2 mutant R207W = molecular target: T2, KCNQ2 mutant R207W (Homo sapiens, UniProt O43526, R207W); assay type: cell-based; settings: RTG (25 μM, −40 mV, FIG. 11B)
T2 construct: expressed in transfected cells; host or cells: CHO cells
T2 sequence (O43526 whole entry R207W): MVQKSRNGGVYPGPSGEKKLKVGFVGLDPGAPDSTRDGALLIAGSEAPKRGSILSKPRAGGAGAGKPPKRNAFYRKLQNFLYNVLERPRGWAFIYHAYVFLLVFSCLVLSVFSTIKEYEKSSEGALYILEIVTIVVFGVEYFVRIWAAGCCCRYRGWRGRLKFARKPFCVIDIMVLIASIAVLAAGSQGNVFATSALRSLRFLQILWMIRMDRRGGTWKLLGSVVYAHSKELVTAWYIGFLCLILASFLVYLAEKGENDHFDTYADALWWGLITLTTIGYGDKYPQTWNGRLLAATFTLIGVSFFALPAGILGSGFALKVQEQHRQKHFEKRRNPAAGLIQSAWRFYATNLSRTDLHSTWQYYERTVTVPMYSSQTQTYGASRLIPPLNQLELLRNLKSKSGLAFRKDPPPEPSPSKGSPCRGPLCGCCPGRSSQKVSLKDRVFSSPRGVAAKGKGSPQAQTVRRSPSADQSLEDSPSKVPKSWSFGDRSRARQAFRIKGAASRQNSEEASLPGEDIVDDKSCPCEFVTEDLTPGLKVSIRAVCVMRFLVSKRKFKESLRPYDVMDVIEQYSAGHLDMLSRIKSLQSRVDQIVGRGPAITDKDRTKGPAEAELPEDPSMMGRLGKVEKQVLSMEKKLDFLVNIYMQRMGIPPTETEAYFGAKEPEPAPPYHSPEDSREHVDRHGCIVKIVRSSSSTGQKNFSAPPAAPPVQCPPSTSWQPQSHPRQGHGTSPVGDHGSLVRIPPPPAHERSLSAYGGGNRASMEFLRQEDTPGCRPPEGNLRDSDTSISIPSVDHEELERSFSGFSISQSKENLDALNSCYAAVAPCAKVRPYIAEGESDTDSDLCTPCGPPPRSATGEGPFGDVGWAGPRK
Description: FIGS. 10A-D present the potentiating effect of NH29, an exemplary channel opener compound according to embodiments of the present invention, on wild type KCNQ2 (FIGS. 10A and 10B) and R207W mutant (FIGS. 10C and 10D) channels, as expressed in activation curve measurements, showing that NH29 left-shifts the activation curve (ΔV50) by −15.5 mV and −5.5 mV in the case of the wild-type and the mutant, respectively, and showing that NH29 enhances the current of wild-type and the mutant by about 3.4-fold (at −40 mV) and 1.5-fold (at −20 mV), respectively.
(§1) FIGS. 11A-F present the potentiating effect of NH29, an exemplary channel opener compound according to embodiments of the present invention, and Retigabine, on KCNQ2 mutants R207W and W236L mutant. Shown are representative traces recorded from CHO cell transfected with the KCNQ2 mutant R207W 0, 1 and 4-4.5 minutes after external application of 25 μM of NH29 and wherein the membrane potential was stepped from −90 mV holding potential to −20 mV for 1.5 seconds pulse duration (FIG. 11A), or 0, 1 and 4 minutes after external application of 25 μM of Retigabine wherein the membrane potential was stepped from −90 mV holding potential to −40 mV for 1.5 seconds pulse duration (FIG. 11B). FIGS. 11C and 11D show representative traces recorded from CHO cells transfected with the KCNQ2 mutant W236L 0, 1 and 6 minutes after external application of 25 μM of NH29 (FIG. 11C) or 0 and 5 minutes after external application of 10 μM of Retigabine (FIG. 11D) and wherein the membrane potential was stepped from −90 mV holding potential to −40 mV for 1.5 seconds pulse duration. FIG. 11E presents superimposed traces, showing the effects of Retigabine (RTG) and NH29 on the channel activity of KCNQ2 mutant W236L as measured at −40 mV; and FIG. 11F presents a bar diagram comparing the potentiating effect of NH29 and Retigabine on native KCNQ2 and KCNQ2 mutants, wherein the opener effect is expressed as percent of the control current in the absence of the opener.
Voltage-clamp recordings in CHO cells were performed, using the whole-cell configuration of the patch-clamp technique. Signals were amplified using an Axopatch 200B patch-clamp amplifier (Molecular Devices, Sunnyvale, Calif.), sampled at 2 kHz and filtered at 800 Hz via a 4-pole Bessel low pass filter. Data were acquired using pClamp 9.2 software (Molecular Devices) and an IBM compatible Pentium IV computer in conjunction with a DigiData 1322A interface (Molecular Devices). The patch pipettes were pulled from borosilicate glass (Warner Instrument Corp, USA) with a resistance of 2-5 MΩ. For K^+ current recordings in CHO cells, the intracellular pipette solution contained (in mM): 130 KCl, 1 MgCl2, 5 K2ATP, 5 EGTA, 10 HEPES, adjusted with KOH to pH 7.4 (290 mOsm). The extracellular solution contained (in mM): 140 NaCl, 4 KCl, 1.8 CaCl2, 1.2 MgCl2, 11 glucose, 5.5 HEPES, adjusted with NaOH to pH 7.4 (310 mOsm). Series resistances (3-13 MΩ) were compensated (75-90%) and periodically monitored.

KCNQ2 mutant S121A = molecular target: T3, KCNQ2 mutant S121A (Homo sapiens, UniProt O43526, S121A); assay: KCNQ2 S1-S2 mutant S121A in CHO cells; assay type: cell-based; settings: RTG
T3 construct: expressed in transfected cells; host or cells: CHO cells
T3 sequence (O43526 whole entry S121A): as the sequence (O43526 whole entry R207W) above, with S121A, W207R counted along it
Description: (§2) FIGS. 12A-F present the potentiating effect of NH29, an exemplary channel opener compound according to embodiments of the present invention, on selected KCNQ2 mutants. Shown are bar diagrams comparing the potentiating effect of NH29 on native KCNQ2 and KCNQ2 mutants, wherein the mutated amino acids are located at the S1-S2 helix region (FIG. 12A) or S4 helix region (FIG. 12D) and wherein the opener effect is expressed as percent of the control current in the absence of the opener. For comparison, marked as a green line, is the observed current increase of native KCNQ2 by NH29. FIGS. 12B 12C, 12E and 12F present representative traces recorded from CHO cell transfected with the KCNQ2 mutant S122A, S121A, L206C and R201A respectively, before and after external application of 25 μM of NH29 and wherein the membrane potential was stepped from −90 mV holding potential to −40 mV for 1.5 seconds pulse duration.
(§3) Voltage-clamp recordings in CHO cells were performed, using the whole-cell configuration of the patch-clamp technique. Signals were amplified using an Axopatch 200B patch-clamp amplifier (Molecular Devices, Sunnyvale, Calif.), sampled at 2 kHz and filtered at 800 Hz via a 4-pole Bessel low pass filter. […] Series resistances (3-13 MΩ) were compensated (75-90%) and periodically monitored.

KCNQ2 mutant R198A = molecular target: T4, KCNQ2 mutant R198A (Homo sapiens, UniProt O43526, R198A); assay: KCNQ2 S4 mutant R198A; assay type: cell-based; settings: RTG
T4 construct: expressed in transfected cells
T4 sequence (O43526 whole entry R198A): as the sequence (O43526 whole entry R207W) above, with R198A, W207R counted along it
Description: as §2, §3

KCNQ2 mutant W236L = molecular target: T5, KCNQ2 mutant W236L (Homo sapiens, UniProt O43526, W236L); assay: KCNQ2 mutant W236L in CHO cells; assay type: cell-based; settings: 10 μM retigabine; 10 μM or 25 μM NH29
T5 construct: expressed in transfected cells; host or cells: CHO cells
T5 sequence (O43526 whole entry W236L): as the sequence (O43526 whole entry R207W) above, with W207R, W236L counted along it
Procedure: as §1, with “FIG. 11E presents superimposed traces, showing the effects of Retigabine (RTG) and NH29 on the channel activity of KCNQ2 mutant W236L as measured at −40 mV; and FIG. 11F presents a bar diagram comparing the potentiating effect of NH29 and Retigabine on native KCNQ2 and KCNQ2 mutants, wherein the opener effect is expressed as percent of the control current in the absence of the opener.” left out
Voltage-clamp recordings in CHO cells were performed, using the whole-cell configuration of the patch-clamp technique. […] Series resistances (3-13 MΩ) were compensated (75-90%) and periodically monitored.

| Compound | inhibition at 25 µM (Kv7.2/3 channels; CHO, 25 μM, membrane potentials from −60 to +50 mV, read-out: inhibition of the Kv7.2/3 current) [%] | Activity (Kv7.2/3 channels; M-channel modulation, Kv7.2 and Kv7.3 subunits coexpressed in CHO cells) | EC50 (Kv7.2/3 channels; compounds whose Activity is Blocker, read-out: EC50) [µM] | IC50 (Kv7.2/3 channels; recombinant Kv7.2/3 in CHO cells, read-out: IC50, blockade of the K+ currents) [µM] | decrease in rheobase current (DRG neurons [1]; 1 μM NH17) | depolarization of DRG membrane potential (ΔV) (DRG neurons [1]; 1 μM NH17, within 2 minutes) | rheobase current to generate a single spike (DRG neurons [1]; 1 μM NH17, 2 ms injection, control 650±71 pA, n=6) [pA] | number of evoked spikes (DRG neurons [2]) | fold increase of current amplitude (KCNQ2 mutant R207W) | fold increase of current (KCNQ2 mutant S121A) | fold increase of current amplitude (KCNQ2 mutant R198A) [fold] | effect of point mutation W236L on the opener effect (KCNQ2 mutant W236L) |
| --- | --- | --- | --- | --- | --- | --- | --- | --- | --- | --- | --- | --- |
| Cl.NCCOCCOC(=O)Cc1ccccc1Nc1c(Cl)cccc1Cl [NH17] | > 90 | potent M-channel blockers; also recorded: Blocker | 11 | 11 | about 300 pA | +7±1 mV | 347±44 | 12±2 | – | – | – | – |
| CCOC(=O)Nc1ccc(NCc2ccc(F)cc2)cc1N [retigabine, N-(2-amino-4-(4-fluorobenzylamino)-phenyl)carbamic acid ethyl ester, reference compound] | – | – | – | – | – | – | – | – | more than 6 fold | more than 5 fold | 4.4 | completely abolished the opener effect |
